# Strand notation (5' to 3'): a small letter for the sugar, then the base; units joined by * are phosphorothioate-linked, units joined directly phosphodiester-linked; [ ] holds rarer units or linkages, { } end groups; capitals alone tell only the bases. k = constrained ethyl (cEt); [5mC] = 5-methylcytosine; d = 2'-deoxy (DNA)
# Tested on: Yap1 mRNA
# Test: Dose-dependent inhibition of human Yap1 in A-431 cells (Example 7, 10,000 cells per well, RTS36584)
# Format: cell-based
# Conditions: free uptake
# Experimental: Modified oligonucleotides described in the studies above were tested at various doses in A-431 cells. Cultured A-431 cells at a density of 10,000 cells per well were treated using free uptake with modified oligonucleotides diluted to concentrations described in the tables below. After approximately 48 hours, Yap1 mRNA levels were measured as previously described using the Human Yap1 primer-probe set RTS36584. Yap1 mRNA levels were normalized to total RNA content, as measured by RIBOGREEN®. Results are presented in the tables below as percent control of the amount of Yap1 mRNA relative to untreated control cells (% UTC). IC50s were calculated using a linear regression on a log/linear plot of the data in excel.
# [1] = Table 61, 15.6 nM, A-431 cells 10,000 cells per well, 48 hours
# [2] = Table 61, 62.5 nM, A-431 cells 10,000 cells per well, 48 hours
# [3] = Table 61, 4000.00 nM, A-431 cells 10,000 cells per well, 48 hours
# [4] = Table 61, A-431 cells 10,000 cells per well
# [5] = Table 56, 15.6 nM, A-431 cells 10,000 cells per well, 48 hours
# [6] = Table 56, 62.5 nM, A-431 cells 10,000 cells per well, 48 hours
# [7] = Table 56, 4000.00 nM, A-431 cells 10,000 cells per well, 48 hours
# [8] = Table 56, A-431 cells 10,000 cells per well
# [9] = Table 57, 15.6 nM, A-431 cells 10,000 cells per well, 48 hours
# [10] = Table 57, 62.5 nM, A-431 cells 10,000 cells per well, 48 hours
# [11] = Table 57, 4000.00 nM, A-431 cells 10,000 cells per well, 48 hours
# [12] = Table 57, A-431 cells 10,000 cells per well
# [13] = 15.6 nM, A-431 cells, 10,000 cells per well, approximately 48 hours
# [14] = 62.5 nM, A-431 cells, 10,000 cells per well, approximately 48 hours
# [15] = 4000.00 nM, A-431 cells, 10,000 cells per well, approximately 48 hours
# [16] = A-431 cells, approximately 48 hours, linear regression on log/linear plot
# [17] = Table 59, 15.6 nM, A-431 cells 10,000 cells per well, 48 hours
# [18] = Table 59, 62.5 nM, A-431 cells 10,000 cells per well, 48 hours
# [19] = Table 59, 4000.00 nM, A-431 cells 10,000 cells per well, 48 hours
# [20] = Table 59, A-431 cells 10,000 cells per well
# [21] = Table 60, 15.6 nM, A-431 cells 10,000 cells per well, 48 hours
# [22] = Table 60, 62.5 nM, A-431 cells 10,000 cells per well, 48 hours
# [23] = Table 60, 4000.00 nM, A-431 cells 10,000 cells per well, 48 hours
# [24] = Table 60, A-431 cells 10,000 cells per well
substance,measurement,setting,value
958614 (kG*kT*k[5mC]*dT*dT*dG*dT*dT*d[5mC]*dT*dT*dA*dT*kG*kG*kT; antisense) [compound 958614],"Yap1 mRNA, % UTC",[1],84 % UTC
same,"Yap1 mRNA, % UTC",[2],49 % UTC
same,"Yap1 mRNA, % UTC",[3],13 % UTC
same,IC50,[4],100 nM
958370 (antisense k[5mC]*kT*kT*dT*dA*dT*d[5mC]*dT*dA*dG*d[5mC]*dT*dT*kG*kG*kT) [compound 958370],"Yap1 mRNA, % UTC",[5],98 % UTC
same,"Yap1 mRNA, % UTC",[6],74 % UTC
same,"Yap1 mRNA, % UTC",[7],22 % UTC
same,IC50,[8],200 nM
958556 (k[5mC]*kA*kA*d[5mC]*d[5mC]*dA*dA*d[5mC]*dT*dA*dT*dT*dA*k[5mC]*kT*kT; antisense) [compound 958556],"Yap1 mRNA, % UTC",[9],103 % UTC
same,"Yap1 mRNA, % UTC",[10],95 % UTC
same,"Yap1 mRNA, % UTC",[11],34 % UTC
same,IC50,[12],500 nM
958786 (kT*kA*kT*dG*dT*d[5mC]*d[5mC]*dT*dA*d[5mC]*dT*dT*dT*k[5mC]*k[5mC]*k[5mC]; antisense) [compound 958786],"Yap1 mRNA, % UTC",[9],106 % UTC
same,"Yap1 mRNA, % UTC",[10],84 % UTC
same,"Yap1 mRNA, % UTC",[11],25 % UTC
same,IC50,[12],300 nM
958594 (k[5mC]*kT*k[5mC]*dT*dT*dA*dG*dG*dT*d[5mC]*dT*d[5mC]*d[5mC]*kT*kT*k[5mC]; antisense) [compound 958594],"Yap1 mRNA, % UTC",[13],91 % UTC
same,"Yap1 mRNA, % UTC",[14],70 % UTC
same,"Yap1 mRNA, % UTC",[15],20 % UTC
same,IC50,[16],200 nM
958805 (k[5mC]*kA*kA*dG*dA*dT*dA*dA*dT*d[5mC]*dA*dT*d[5mC]*k[5mC]*kT*k[5mC]; antisense) [compound 958805],"Yap1 mRNA, % UTC",[13],90 % UTC
same,"Yap1 mRNA, % UTC",[14],89 % UTC
same,"Yap1 mRNA, % UTC",[15],28 % UTC
same,IC50,[16],300 nM
958491 (kA*k[5mC]*kT*dA*dA*dA*dT*dG*d[5mC]*dT*dG*dT*dG*kA*k[5mC]*kA; antisense) [compound 958491],"Yap1 mRNA, % UTC",[9],94 % UTC
same,"Yap1 mRNA, % UTC",[10],65 % UTC
same,"Yap1 mRNA, % UTC",[11],10 % UTC
same,IC50,[12],100 nM
958742 (kA*kG*k[5mC]*dA*dA*dT*dA*dT*dG*dG*dT*dA*dT*kT*kA*kG; antisense) [compound 958742],"Yap1 mRNA, % UTC","Table 58, 15.6 nM, A-431 cells 10,000 cells per well, 48 hours",105 % UTC
same,"Yap1 mRNA, % UTC","Table 58, 62.5 nM, A-431 cells 10,000 cells per well, 48 hours",70 % UTC
same,"Yap1 mRNA, % UTC","Table 58, 4000.00 nM, A-431 cells 10,000 cells per well, 48 hours",20 % UTC
same,IC50,"Table 58, A-431 cells 10,000 cells per well",200 nM
958763 (k[5mC]*kA*k[5mC]*dA*dA*dT*dA*d[5mC]*dA*dA*dG*dA*dT*kG*k[5mC]*kA; antisense) [compound 958763],"Yap1 mRNA, % UTC",[17],98 % UTC
same,"Yap1 mRNA, % UTC",[18],60 % UTC
same,"Yap1 mRNA, % UTC",[19],8 % UTC
same,IC50,[20],100 nM
958726 (k[5mC]*kT*kG*dT*d[5mC]*dA*dG*dT*dT*dA*dT*d[5mC]*d[5mC]*kT*kA*kT; antisense) [compound 958726],"Yap1 mRNA, % UTC",[5],99 % UTC
same,"Yap1 mRNA, % UTC",[6],70 % UTC
same,"Yap1 mRNA, % UTC",[7],16 % UTC
same,IC50,[8],170 nM
958781 (kG*kT*k[5mC]*dA*dT*d[5mC]*dT*dA*dT*dG*dT*dG*dT*k[5mC]*k[5mC]*kT; antisense) [compound 958781],"Yap1 mRNA, % UTC",[9],77 % UTC
same,"Yap1 mRNA, % UTC",[10],45 % UTC
same,"Yap1 mRNA, % UTC",[11],10 % UTC
same,IC50,[12],100 nM
958593 (kG*kG*kT*d[5mC]*dA*dG*dT*dA*d[5mC]*dA*dG*dA*dG*kG*kG*k[5mC]; antisense) [compound 958593],"Yap1 mRNA, % UTC",[21],99 % UTC
same,"Yap1 mRNA, % UTC",[22],60 % UTC
same,"Yap1 mRNA, % UTC",[23],15 % UTC
same,IC50,[24],100 nM
958451 (antisense k[5mC]*kA*k[5mC]*dG*dA*dT*d[5mC]*dT*dG*dA*dT*dG*d[5mC]*k[5mC]*k[5mC]*kG) [compound 958451],"Yap1 mRNA, % UTC",[9],98 % UTC
same,"Yap1 mRNA, % UTC",[10],74 % UTC
same,"Yap1 mRNA, % UTC",[11],23 % UTC
same,IC50,[12],200 nM
958563 (kA*kG*k[5mC]*dT*dT*dT*dT*dG*d[5mC]*d[5mC]*dA*dG*dG*kA*kG*kA; antisense) [compound 958563],"Yap1 mRNA, % UTC",[17],94 % UTC
same,"Yap1 mRNA, % UTC",[18],54 % UTC
same,"Yap1 mRNA, % UTC",[19],10 % UTC
same,IC50,[20],100 nM
958718 (kG*kA*kA*d[5mC]*dA*d[5mC]*dT*dA*dT*dA*dG*d[5mC]*dT*kT*kG*kG; antisense) [compound 958718],"Yap1 mRNA, % UTC",[21],104 % UTC
same,"Yap1 mRNA, % UTC",[22],80 % UTC
same,"Yap1 mRNA, % UTC",[23],24 % UTC
same,IC50,[24],200 nM
958731 (kG*k[5mC]*kT*d[5mC]*dT*dG*dT*d[5mC]*dA*dG*dT*dT*dA*kT*k[5mC]*k[5mC]; antisense) [compound 958731],"Yap1 mRNA, % UTC",[9],85 % UTC
same,"Yap1 mRNA, % UTC",[10],64 % UTC
same,"Yap1 mRNA, % UTC",[11],19 % UTC
same,IC50,[12],100 nM
958813 (kT*kT*kA*d[5mC]*dA*dG*dA*dG*dA*dG*dA*dT*dT*k[5mC]*kA*kT; antisense) [compound 958813],"Yap1 mRNA, % UTC",[21],81 % UTC
same,"Yap1 mRNA, % UTC",[22],79 % UTC
same,"Yap1 mRNA, % UTC",[23],29 % UTC
same,IC50,[24],200 nM
958724 (kT*k[5mC]*kA*dG*dT*dT*dA*dT*d[5mC]*d[5mC]*dT*dA*dT*k[5mC]*k[5mC]*k[5mC]; antisense) [compound 958724],"Yap1 mRNA, % UTC",[1],89 % UTC
same,"Yap1 mRNA, % UTC",[2],55 % UTC
same,"Yap1 mRNA, % UTC",[3],6 % UTC
same,IC50,[4],100 nM
958605 (k[5mC]*kT*k[5mC]*dA*dG*dA*dT*dG*dT*dA*d[5mC]*d[5mC]*dA*kA*k[5mC]*kG; antisense) [compound 958605],"Yap1 mRNA, % UTC",[13],76 % UTC
same,"Yap1 mRNA, % UTC",[14],63 % UTC
same,"Yap1 mRNA, % UTC",[15],9 % UTC
same,IC50,[16],100 nM
958686 (k[5mC]*kG*k[5mC]*dA*dA*dT*dA*dT*dA*dG*dT*d[5mC]*dT*kA*kT*kA; antisense) [compound 958686],"Yap1 mRNA, % UTC",[9],75 % UTC
same,"Yap1 mRNA, % UTC",[10],69 % UTC
same,"Yap1 mRNA, % UTC",[11],18 % UTC
same,IC50,[12],100 nM
958796 (kA*kT*kT*dA*dT*dA*dT*dG*dG*dT*dT*dG*d[5mC]*kT*kT*k[5mC]; antisense) [compound 958796],"Yap1 mRNA, % UTC",[5],91 % UTC
same,"Yap1 mRNA, % UTC",[6],62 % UTC
same,"Yap1 mRNA, % UTC",[7],15 % UTC
same,IC50,[8],130 nM
958798 (kT*kG*k[5mC]*dA*dG*dT*dA*dT*dA*dA*dT*dA*dT*k[5mC]*k[5mC]*kT; antisense) [compound 958798],"Yap1 mRNA, % UTC",[17],101 % UTC
same,"Yap1 mRNA, % UTC",[18],61 % UTC
same,"Yap1 mRNA, % UTC",[19],12 % UTC
same,IC50,[20],100 nM
958578 (k[5mC]*kT*kT*dA*dA*dT*d[5mC]*dT*dG*dT*dG*dG*d[5mC]*kT*kA*k[5mC]; antisense) [compound 958578],"Yap1 mRNA, % UTC",[21],78 % UTC
same,"Yap1 mRNA, % UTC",[22],52 % UTC
same,"Yap1 mRNA, % UTC",[23],10 % UTC
same,IC50,[24],100 nM
958735 (kA*kG*k[5mC]*dA*dA*dT*d[5mC]*dT*dT*dG*dT*dG*dG*kA*kT*k[5mC]; antisense) [compound 958735],"Yap1 mRNA, % UTC",[13],116 % UTC
same,"Yap1 mRNA, % UTC",[14],69 % UTC
same,"Yap1 mRNA, % UTC",[15],23 % UTC
same,IC50,[16],200 nM
